Results as given in patent US20210038589A1, “USES, COMPOSITIONS AND METHODS” (priority 2018, published 2021).

Key:
[1] = system: gamma oscillations in mouse hippocampal slices; test: Prevention of Aβ-induced degradation of kainate-induced gamma oscillations in hippocampal slices (interface chamber); format: cell-based; settings: 50 nM Aβ in last 15 min, 100 nM KA
Procedure: Previously we have characterized the effects of acute Aβ on the hippocampal circuitry of WT mice. […] During the last 15 min 50 nM Aβ was added to the incubation solution. […] Control experiments were also performed by incubating slice just with ACSF for 1 h (with Aβ present for the last 15 min) or incubating just with ACSF for 1 h. […] Pmzd 10 μM: 9.95±1.82×10^-9V^2, n=10, p<0.0001 vs Aβ, FIGS. 4A,B,C,F, light and dark green, respectively). […] Horizontal sections (350 μm thick) of the ventral hippocampi of both hemispheres were prepared with a Leica VT1200S vibratome (Leica Microsystems). Immediately after cutting, slices were transferred into a humidified interface holding chamber containing standard ACSF (in mM): 124 NaCl, 30 NaHCO3, 10 glucose, 1.25 NaH2PO4, 3.5 KCl, 1.5 MgCl2, 1.5 CaCl2, continuously supplied with humidified carbogen. The chamber was held at 34° C. during slicing and subsequently allowed to cool down to room temperature ( 22° C.) for a minimum of 1 hour. Recordings were carried out in hippocampal area CA3 with borosilicate glass microelectrodes, pulled to a resistance of 3-7 MΩ. Local field potential (LFP) were recorded using microelectrodes filled with ACSF placed in CA3 stratum pyramidale. LFP oscillations were elicited by applying kainic acid (100 nM) to the extracellular bath, Interface chamber LFP recordings were performed with a 4-channel […] amplifier (University of Cologne, Germany). Submerged chamber LFP recordings and patch-clamp recordings were performed using a Multiclamp 700B (Molecular Devices, CA, USA). In order to maintain stable LFP oscillations all recordings were performed at 34° C. with a perfusion rate of 3-5 ml per minute of aerated ACSF containing 100 nM Kainate. The oscillations were allowed to stabilize for at least 20 minutes before any recordings were performed. Power spectra density plots (from 60 s long LFP recordings) were calculated in averaged Fourier-segments of 8192 points using Axograph X (Kagi, Berkeley, Calif., USA). […] Coefficient of rhythmicity (Cr) was calculated in order to assess the rhythmicity of gamma oscillations (26, 27) and was defined as Cr=(α-β)/(α+β) were α corresponds to the value of the height of the second peak and β to the first valley in the normalized autocorrelogram. […] Only recordings having Cr≥0.01 were considered rhythmic.

[2] = system: gamma oscillations in mouse hippocampal slices; test: Rescue of gamma oscillations previously degraded by Aβ in hippocampal slices (submerged chamber); format: cell-based; settings: Aβ still present
Procedure: Hippocampal slices were placed in a submerged recording chamber where gamma oscillations were induced by bath perfusion of 100 nM KA and allowed to stabilize for 20-30 min. Continuous recordings of LFP gamma oscillations were performed in 4 different conditions (FIG. 5). All groups were initially activated with Kainate. In a control group of slices oscillations were recorded for 40 min after stabilization without any other compound addition (control, n=5, grey). All other groups were perfused with 1 μM Aβ after stabilization of the oscillations for a minimum of 20 min. For these experiments the concentration of Aβ applied was increased to 1 μM in order to overcome the method-dependent lower signal amplitude due to the submerged recording conditions (8).
Hippocampal slices were placed on a submerged recording chamber where gamma oscillations were induced by bath perfusion of 100 nM Kainate and allowed to stabilize for 20-30 minutes. Continuous recordings of LFP gamma oscillations were performed in 3 different conditions. All groups were initially activated with kainate. In a control group of slices oscillations were recorded for 40 minutes after their stabilization without any other compound addiction (control, n=5; see FIG. 5). All the other groups were perfused with Aβ 1 μM after the stabilization of the oscillations for a minimum of 20 minutes.

Clc1ccc(N2CCN(Cc3c[nH]c4ncccc34)CC2)cc1 [L745,870]
gamma oscillation power ([1]; 1 h incubation with 500 nM compound): 1.61±0.52 ×10^−9V^2

CC(C)(C)CCN1C[C@@H]2[C@@H](CNC(=O)c3cc(Cl)cc(Cl)c3)[C@@H]2C1 [ML-218]
gamma power after treatment application, relative to Aβ ([2]; 5 μM compound applied after 20 min of 1 μM Aβ): 2.16±0.53 of Aβ

CC(C)[C@H]1c2ccc(F)cc2CC[C@@]1(CCN(C)CCCc1nc2ccccc2[nH]1)OC(=O)C1CC1 [NNC55-0396]
gamma power after treatment application, relative to Aβ ([2]; 10 μM compound applied after 20 min of 1 μM Aβ): 1.85±0.15 of Aβ

CC1CCN(CC[C@H]2CCCN2S(=O)(=O)c2cccc(O)c2)CC1 [SB-269970, ®-3-(2-(2-(4-methylpiperidin-1-yl)ethil)pyrrolidine-1-sulfonyl) phenol]
gamma oscillation power ([1]; 1 h incubation with 1 μM compound): 1.47±0.24 ×10^−9V^2

CCN1CCCC1CNC(=O)c1cc(S(N)(=O)=O)ccc1OC (centres unmarked) [Sulpiride]
gamma oscillation power ([1]; 1 h incubation with 5 μM compound): 2.23±0.52 ×10^−9V^2
